Data published in patent publication EP4741392A1, “1H-PYRAZOLO[4,3-C]PYRIDINE COMPOUND, AND COMPOSITION THEREOF AND USE THEREOF” (Shenzhen TargetRx Co., Ltd., priority 2023, dated 2025).

Columns and labels:
Type in all cases: cell-based
NIH/3T3 BTK C481S cells = assay: Phosphor-BTK(Y223) assay, adherent cells; conditions: Mus musculus, NIH3T3, phosphorylated BTK Y223, NIH/3T3 BTK C481S cells; read-out: NIH/3T3 BTK-C481S pBTK
In short: (§1)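 NIH/3T3 cells expressing WT or C481S BTK were pretreated with compound for 0.5 h at 37 °C, then stimulated with 1 mM Na3VO4 (final) for 2 h. Lysates were assayed by HTRF for p-BTK Y223 using the 665/620 nm ratio. IC50 was obtained by nonlinear fit of % inhibition versus 0.5% DMSO control.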

NIH/3T3 BTK WT cells = assay: Phosphor-BTK(Y223) assay, adherent cells; conditions: Mus musculus, NIH3T3, phosphorylated BTK Y223, NIH/3T3 BTK WT cells; read-out: NIH/3T3 BTK-WT pBTK
In short: as §1

Ramos cells with BTK WT = assay: Phosphor-BTK(Y223) assay, suspended cells; conditions: Homo sapiens, Ramos, phosphorylated BTK Y223, Ramos cells with BTK WT
In short: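 Ramos BTK WT cells (2.5 k/well) were treated with compound dilutions for 2 h at 37 °C, then 5 mM Na3VO4 for 3 h. Lysates were read by HTRF p-BTK(Y223) cryptate/d2 antibodies overnight at RT (665/620 ratio). IC50 came from a four-parameter fit of % inhibition versus blank and positive-control wells.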

Row | Structure (SMILES) | IC50 (NIH/3T3 BTK C481S cells) | IC50 (NIH/3T3 BTK WT cells) | IC50 (Ramos cells with BTK WT)
1 | COc1ccc(F)cc1C(=O)NCc1ccc(-c2ncc(-c3ccc(OCCN4CCCC4)cn3)c3[nH]nc(N)c23)cc1 [Example 62, N-(4-(3-amino-7-(5-(2-(pyrrolidin-1-yl)ethoxy)pyridin-2-yl)-1H-pyrazolo[4,3-c]pyridin-4-yl)benzyl)-5-fluoro-2-methoxybenzamide] | ≤ 5 nM | ≤ 5 nM | 5 to 10 nM
2 | COc1ccc(F)cc1C(=O)NCc1ccc(-c2ncc(-c3ccc(OCCN(C)C)cn3)c3[nH]nc(N)c23)cc1 [Example 60, N-(4-(3-amino-7-(5-(2-(dimethylamino)ethoxy)pyridin-2-yl)-1H-pyrazolo[4,3-c]pyridin-4-yl)benzyl)-5-fluoro-2-methoxybenzamide] | ≤ 5 nM | ≤ 5 nM | ≤ 5 nM
3 | COc1ccc(F)cc1C(=O)NCc1ccc(-c2nc(C(C)C(F)(F)F)c(-c3ccn(C)n3)c3[nH]nc(N)c23)cc1 (single isomer, unassigned) [Example 6-1, N-(4-(3-amino-7-(1-methyl-1H-pyrazol-3-yl)-6-(1,1,1-trifluoropropan-2-yl)-1H-pyrazolo[4,3-c]pyridin-4-yl)benzyl)-5-fluoro-2-methoxybenzamide] | 10 to 50 nM | ≤ 5 nM | ≤ 5 nM
4 | COc1ccc(F)cc1C(=O)NCc1ccc(-c2nc(C(C)C(F)(F)F)c(-c3cc(C)[nH]n3)c3[nH]nc(N)c23)cc1 (stereo not drawn) [Example 9, N-(4-(3-amino-7-(5-methyl-1H-pyrazol-3-yl)-6-(1,1,1-trifluoropropan-2-yl)-1H-pyrazolo[4,3-c]pyridin-4-yl)benzyl)-5-fluoro-2-methoxybenzamide] | 10 to 50 nM | 5 to 10 nM | 5 to 10 nM
5 | COc1ccc(F)cc1C(=O)NCc1ccc(-c2ncc(-c3ncc(C)cn3)c3[nH]nc(N)c23)cc1 [Example 39, N-(4-(3-amino-7-(5-methylpyrimidin-2-yl)-1H-pyrazolo[4,3-c]pyridin-4-yl)benzyl)-5-fluoro-2-methoxybenzamide] | ≤ 5 nM | ≤ 5 nM | ≤ 5 nM
6 | COc1ccc(F)cc1C(=O)NCc1ccc(-c2ncc(-c3nc4ccccn4n3)c3[nH]nc(N)c23)cc1 [Example 58, N-(4-(7-([1,2,4]triazolo[1,5-a]pyridin-2-yl)-3-amino-1H-pyrazolo[4,3-c]pyridin-4-yl)benzyl)-5-fluoro-2-methoxybenzamide] | ≤ 5 nM | ≤ 5 nM | ≤ 5 nM
7 | COc1ccc(F)cc1C(=O)NCc1ccc(-c2ncc(-c3ccc4c(n3)nc3n4CCOC3)c3[nH]nc(N)c23)cc1 [Example 102, N-(4-(3-amino-7-(6,7-dihydro-9H-pyrido[2',3':4,5]imidazo[2,1-c][1,4]oxazin-2-yl)-1H-pyrazolo[4,3-c]pyridin-4-yl)benzyl)-5-fluoro-2-methoxybenzamide] | 10 to 50 nM | 10 to 50 nM | 10 to 50 nM
8 | COc1ccc(F)cc1C(=O)NCc1ccc(-c2ncc(-c3ccccn3)c3[nH]nc(N)c23)cc1 [Example 15, N-(4-(3-amino-7-(pyridin-2-yl)-1H-pyrazolo[4,3-c]pyridin-4-yl)benzyl)-5-fluoro-2-methoxybenzamide] | 5 to 10 nM | ≤ 5 nM | 5 to 10 nM
9 | COc1ccc(F)cc1C(=O)NCc1ccc(-c2ncc(-c3ccc4c(n3)nc3n4C(C)COC3)c3[nH]nc(N)c23)cc1 (stereo not drawn) [Example 103, N-(4-(3-amino-7-(6-methyl-6,7-dihydro-9H-pyrido[2',3':4,5]imidazo[2,1-c][1,4]oxazin-2-yl)-1H-pyrazolo[4,3-c]pyridin-4-yl)benzyl)-5-fluoro-2-methoxybenzamide] | 10 to 50 nM | 5 to 10 nM | 10 to 50 nM
10 | COc1ccc(F)cc1C(=O)NCc1ccc(-c2ncc(-c3ccc(Cl)cn3)c3[nH]nc(N)c23)cc1 [Example 38, N-(4-(3-amino-7-(5-chloropyridin-2-yl)-1H-pyrazolo[4,3-c]pyridin-4-yl)benzyl)-5-fluoro-2-methoxybenzamide] | ≤ 5 nM | ≤ 5 nM | ≤ 5 nM
11 | COc1ccc(F)cc1C(=O)NCc1ccc(-c2ncc(-c3nc4ccccc4s3)c3[nH]nc(N)c23)cc1 [Example 99, N-(4-(3-amino-7-(benzo[d]thiazol-2-yl)-1H-pyrazolo[4,3-c]pyridin-4-yl)benzyl)-5-fluoro-2-methoxybenzamide] | 5 to 10 nM | ≤ 5 nM | ≤ 5 nM
12 | COc1ccc(F)cc1C(=O)NCc1ccc(-c2ncc(-c3cc4n(n3)CCN(C)C4)c3[nH]nc(N)c23)cc1 [Example 71, N-(4-(3-amino-7-(5-methyl-4,5,6,7-tetrahydropyrazolo[1,5-a]pyrazin-2-yl)-1H-pyrazolo[4,3-c]pyridin-4-yl)benzyl)-5-fluoro-2-methoxybenzamide] | ≤ 5 nM | ≤ 5 nM | ≤ 5 nM
13 | COc1ccc(F)cc1C(=O)NCc1ccc(-c2nc(C(C)C(F)(F)F)c(-c3ncccn3)c3[nH]nc(N)c23)cc1 (single isomer, unassigned) [Example 7-1, N-(4-(3-amino-7-(pyrimidin-2-yl)-6-(1,1,1-trifluoropropan-2-yl)-1H-pyrazolo[4,3-c]pyridin-4-yl)benzyl)-5-fluoro-2-methoxybenzamide] | 5 to 10 nM | ≤ 5 nM | ≤ 5 nM
14 | COc1ccc(F)cc1C(=O)NCc1ccc(-c2ncc(-c3ccn(C)n3)c3[nH]nc(N)c23)cc1 [Example 23, N-(4-(3-amino-7-(1-methyl-1H-pyrazol-3-yl)-1H-pyrazolo[4,3-c]pyridin-4-yl)benzyl)-5-fluoro-2-methoxybenzamide] | ≤ 5 nM | ≤ 5 nM | ≤ 5 nM
